ChEMBL document CHEMBL1146387, “A new class of anti-MRSA and anti-VRE agents: preparation and antibacterial activities of indole-containing compounds” (2007)
In brackets after ≈: the same amount, converted by molar mass.

How the values were obtained:
Assay type in all cases: functional
[1] = tested on: Staphylococcus aureus; experiment: Antibacterial activity against methicillin-susceptible Staphylococcus aureus 209P
[2] = tested on: Staphylococcus aureus; experiment: Antibacterial activity against methicillin-resistant Staphylococcus aureus MF535
[3] = tested on: Enterococcus faecium; experiment: Antibacterial activity against Enterococcus faecium ATCC 19434
[4] = tested on: Enterococcus faecium; experiment: Antibacterial activity against vancomycin-resistant Enterococcus faecium VRA

Row | Compound | MIC [1] [µg/mL] | MIC [2] [µg/mL] | MIC [3] [µg/mL] | MIC [4] [µg/mL]
1 | CC(=O)NCCc1c(C(c2cccc(Br)c2)c2c(O)c3ccccc3oc2=O)[nH]c2ccccc12 (configuration not stated) | > 128 | > 128 | > 128 | > 128
2 | O=C(OCCc1c(C(c2ccccc2)c2c(O)c3ccccc3oc2=O)[nH]c2ccccc12)c1ccccc1 (configuration not stated) | 8 (≈ 15.5 µM) | 8 (≈ 15.5 µM) | 16 (≈ 31 µM) | 16 (≈ 31 µM)
3 | COc1ccccc1C(=O)OCCc1c(C(c2cccc(Br)c2)c2c(O)cc(C)oc2=O)[nH]c2ccccc12 (configuration not stated) | 32 (≈ 54.4 µM) | 64 (≈ 109 µM) | 64 (≈ 109 µM) | 64 (≈ 109 µM)
4 | COc1ccc(C(c2[nH]c3ccccc3c2CCOC(=O)c2ccccc2)c2c(O)c3ccccc3oc2=O)cc1 (configuration not stated) | 8 (≈ 14.7 µM) | 8 (≈ 14.7 µM) | 16 (≈ 29.3 µM) | 16 (≈ 29.3 µM)
5 | Cn1c(=O)c(C(c2ccc(C(F)(F)F)cc2)c2[nH]c3ccccc3c2CCNS(=O)(=O)c2ccccc2)c(O)c2ccccc21 (configuration not stated) | 1 (≈ 1.58 µM) | 1 (≈ 1.58 µM) | 4 (≈ 6.33 µM) | 2 (≈ 3.17 µM)
6 | O=C(OCCc1c(C(c2ccc(OC(F)(F)F)cc2)c2c(O)c3ccccc3oc2=O)[nH]c2ccccc12)c1ccccc1 (configuration not stated) | 2 (≈ 3.34 µM) | 2 (≈ 3.34 µM) | 0.5 (≈ 0.834 µM) | 0.5 (≈ 0.834 µM)
7 | COc1ccccc1C(=O)OCCc1c(C(c2cncc(Br)c2)c2c(O)c3ccccc3oc2=O)[nH]c2ccccc12 (configuration not stated) | 64 (≈ 102 µM) | 128 (≈ 205 µM) | 128 (≈ 205 µM) | 128 (≈ 205 µM)
8 | CC(=O)NCCc1c(C(c2cccc(Br)c2)c2c(O)c3ccccc3n(C)c2=O)[nH]c2ccccc12 (configuration not stated) | 32 (≈ 58.8 µM) | 32 (≈ 58.8 µM) | > 128 | > 128
9 | COc1ccccc1C(=O)OCCc1c(C(c2cccc(Br)c2)c2c(O)c3ccccc3n(C)c2=O)[nH]c2ccccc12 (configuration not stated) | > 128 | > 128 | > 128 | > 128
10 | O=C(OCCc1c(C(c2cccc(C(F)(F)F)c2)c2c(O)c3ccccc3oc2=O)[nH]c2ccccc12)c1ccccc1 (configuration not stated) | 4 (≈ 6.85 µM) | 4 (≈ 6.85 µM) | 2 (≈ 3.43 µM) | 1 (≈ 1.71 µM)
11 | CSc1ccc(C(c2[nH]c3ccccc3c2CCOC(=O)c2ccccc2)c2c(O)c3ccccc3oc2=O)cc1 (configuration not stated) | 4 (≈ 7.12 µM) | 8 (≈ 14.2 µM) | 4 (≈ 7.12 µM) | 4 (≈ 7.12 µM)
12 | Cc1ccc(C(c2[nH]c3ccccc3c2CCOC(=O)c2ccccc2)c2c(O)c3ccccc3oc2=O)cc1 (configuration not stated) | 4 (≈ 7.55 µM) | 4 (≈ 7.55 µM) | 8 (≈ 15.1 µM) | 8 (≈ 15.1 µM)
13 | Cn1c(=O)c(C(c2cccc(Br)c2)c2[nH]c3ccccc3c2CCOC(=O)c2ccccc2)c(O)c2ccccc21 (configuration not stated) | 1 (≈ 1.65 µM) | 2 (≈ 3.29 µM) | > 128 | > 128
14 | Cn1c(=O)c(C(c2cccc(Br)c2)c2[nH]c3ccccc3c2CCOC(=O)Cc2ccccc2)c(O)c2ccccc21 (configuration not stated) | 64 (≈ 103 µM) | > 128 | > 128 | > 128
15 | O=C(OCCc1c(C(c2cccc(F)c2)c2c(O)c3ccccc3oc2=O)[nH]c2ccccc12)c1ccccc1 (configuration not stated) | 4 (≈ 7.5 µM) | 8 (≈ 15 µM) | 8 (≈ 15 µM) | 8 (≈ 15 µM)
16 | Cc1cccc(C(c2[nH]c3ccccc3c2CCOC(=O)c2ccccc2)c2c(O)c3ccccc3oc2=O)c1 (configuration not stated) | 8 (≈ 15.1 µM) | 8 (≈ 15.1 µM) | 8 (≈ 15.1 µM) | 4 (≈ 7.55 µM)
17 | O=C(OCCc1c(C(c2ccc(Br)cc2)c2c(O)c3ccccc3oc2=O)[nH]c2ccccc12)c1ccccc1 (configuration not stated) | 2 (≈ 3.36 µM) | 2 (≈ 3.36 µM) | 2 (≈ 3.36 µM) | 2 (≈ 3.36 µM)
18 | Cn1c(=O)c(C(c2ccc(C(F)(F)F)cc2)c2[nH]c3ccccc3c2CCOC(=O)c2ccccc2)c(O)c2ccccc21 (configuration not stated) | 0.5 (≈ 0.838 µM) | 1 (≈ 1.68 µM) | 8 (≈ 13.4 µM) | 8 (≈ 13.4 µM)

Row | Compound | MIC [1] [µg/mL] | MIC [2] [µg/mL] | MIC [3] [µg/mL] | MIC [4] [µg/mL]
19 | Cn1c(=O)c(C(c2ccc(C(F)(F)F)cc2)c2[nH]c3ccccc3c2CCNC(=O)c2ccccc2)c(O)c2ccccc21 (configuration not stated) | 8 (≈ 13.4 µM) | 16 (≈ 26.9 µM) | 16 (≈ 26.9 µM) | 16 (≈ 26.9 µM)
20 | Cn1c(=O)c(C(c2ccc(C(F)(F)F)cc2)c2[nH]c3ccccc3c2CCOC(=O)Cc2ccccc2)c(O)c2ccccc21 (configuration not stated) | 1 (≈ 1.64 µM) | 1 (≈ 1.64 µM) | > 128 | > 128
21 | Cn1c(=O)c(C(c2ccc(C(F)(F)F)cc2)c2[nH]c3ccccc3c2CCOC(=O)C2CCCCC2)c(O)c2ccccc21 (configuration not stated) | 1 (≈ 1.66 µM) | 1 (≈ 1.66 µM) | 2 (≈ 3.32 µM) | 1 (≈ 1.66 µM)
22 | CN(C(=O)NCCc1c(C(c2ccc(C(F)(F)F)cc2)c2c(O)c3ccccc3n(C)c2=O)[nH]c2ccccc12)c1ccccc1 (configuration not stated) | 1 (≈ 1.6 µM) | 1 (≈ 1.6 µM) | 2 (≈ 3.2 µM) | 1 (≈ 1.6 µM)
23 | Cn1c(=O)c(C(c2ccc(OC(F)(F)F)cc2)c2[nH]c3ccccc3c2CCOC(=O)c2ccccc2)c(O)c2ccccc21 (configuration not stated) | 0.5 (≈ 0.816 µM) | 1 (≈ 1.63 µM) | > 128 | > 128
24 | Cn1c(=O)c(C(c2ccc(OC(F)(F)F)cc2)c2[nH]c3ccccc3c2CCOC(=O)Cc2ccccc2)c(O)c2ccccc21 (configuration not stated) | 1 (≈ 1.6 µM) | 1 (≈ 1.6 µM) | 32 (≈ 51.1 µM) | 2 (≈ 3.19 µM)
25 | Cn1c(=O)c(C(c2ccc(OC(F)(F)F)cc2)c2[nH]c3ccccc3c2CCOC(=O)C2CCCCC2)c(O)c2ccccc21 (configuration not stated) | 1 (≈ 1.62 µM) | 1 (≈ 1.62 µM) | 2 (≈ 3.23 µM) | 2 (≈ 3.23 µM)
26 | O=C(OCCc1c(C(c2ccc(OC(F)(F)F)cc2)c2c(O)c3cc(Cl)ccc3oc2=O)[nH]c2ccccc12)c1ccccc1 (configuration not stated) | 2 (≈ 3.15 µM) | 2 (≈ 3.15 µM) | 1 (≈ 1.58 µM) | 1 (≈ 1.58 µM)
27 | O=C(OCCc1c(C(c2ccc(C(F)(F)F)cc2)c2c(O)c3ccccc3oc2=O)[nH]c2ccccc12)c1ccccc1 (configuration not stated) | 2 (≈ 3.43 µM) | 2 (≈ 3.43 µM) | 2 (≈ 3.43 µM) | 2 (≈ 3.43 µM)
28 | COc1ccccc1C(=O)OCCc1c(C(c2cccc(Br)c2)c2c(O)c3ccccc3oc2=O)[nH]c2ccccc12 (configuration not stated) | 4 (≈ 6.41 µM) | 8 (≈ 12.8 µM) | 8 (≈ 12.8 µM) | 8 (≈ 12.8 µM)
29 | COc1ccccc1C(=O)NCCc1c(C(c2cccc(Br)c2)c2c(O)c3ccccc3oc2=O)[nH]c2ccccc12 (configuration not stated) | 8 (≈ 12.8 µM) | 16 (≈ 25.7 µM) | 32 (≈ 51.3 µM) | 32 (≈ 51.3 µM)
30 | O=C(OCCc1c(C(c2cccc(Br)c2)c2c(O)c3ccccc3oc2=O)[nH]c2ccccc12)c1ccccc1 (configuration not stated) | 4 (≈ 6.73 µM) | 4 (≈ 6.73 µM) | 4 (≈ 6.73 µM) | 4 (≈ 6.73 µM)
31 | CC(=O)OCCc1c(C(c2cccc(Br)c2)c2c(O)c3ccccc3n(C)c2=O)[nH]c2ccccc12 (configuration not stated) | 16 (≈ 29.3 µM) | 16 (≈ 29.3 µM) | 64 (≈ 117 µM) | 32 (≈ 58.7 µM)
32 | Cn1c(=O)c(C(c2ccc(OC(F)(F)F)cc2)c2[nH]c3ccccc3c2CCNC(=O)c2ccccc2)c(O)c2ccccc21 (configuration not stated) | 8 (≈ 13.1 µM) | 128 (≈ 209 µM) | > 128 | > 128
33 | CC(=O)OCCc1c(C(c2cccc(Br)c2)c2c(O)c3ccccc3oc2=O)[nH]c2ccccc12 (configuration not stated) | 32 (≈ 60.1 µM) | 32 (≈ 60.1 µM) | 64 (≈ 120 µM) | 32 (≈ 60.1 µM)
34 | CC(=O)NC[C@H]1CN(c2ccc(N3CCOCC3)c(F)c2)C(=O)O1 [LINEZOLID] | 1 (≈ 2.96 µM) | 1 (≈ 2.96 µM) | 2 (≈ 5.93 µM) | 2 (≈ 5.93 µM)
35 | CN[C@H](CC(C)C)C(=O)N[C@H]1C(=O)N[C@@H](CC(N)=O)C(=O)N[C@H]2C(=O)N[C@H]3C(=O)N[C@H](C(=O)N[C@H](C(=O)O)c4cc(O)cc(O)c4-c4cc3ccc4O)[C@H](O)c3ccc(c(Cl)c3)Oc3cc2cc(c3O[C@@H]2O[C@H](CO)[C@@H](O)[C@H](O)[C@H]2O[C@H]2C[C@](C)(N)[C@H](O)[C@H](C)O2)Oc2ccc(cc2Cl)[C@H]1O [VANCOMYCIN] |  |  |  | > 128
